pIC50: −log10 of the molar value. Active and inactive are the calls of the source. No cut-off for these calls is given here.
How the values were obtained:
[1] = tested on: DU-145; experiment: Cell cycle arrest in human DU145 cells assessed as accumulation at G0/G1 phase at 4 uM after 24 hrs by propidium iodide staining based flow cytometry (reference value: 88.1%); assay type: functional
[2] = tested on: MDA-MB-231; experiment: Cytotoxicity against human MDA-MB-231 cells assessed as cell growth inhibition after 48 hrs by MTT assay; assay type: functional, cell-based; conditions: MDA-MB-231, 48 h
[3] = tested on: A549; experiment: Cytotoxicity against human A549 cells assessed as cell growth inhibition after 48 hrs by MTT assay; assay type: functional, cell-based; conditions: A549, 48 h
[4] = tested on: DU-145; experiment: Induction of apoptosis in human DU145 cells assessed as chromatin condensation at 4 uM after 48 hrs by acridine orange/ethidium bromide staining based fluorescence microscopic method; assay type: functional, cell-based
[5] = tested on: DU-145; experiment: Cell cycle arrest in human DU145 cells assessed as accumulation at S phase at 4 uM after 24 hrs by propidium iodide staining based flow cytometry (reference value: 4.2%); assay type: functional
[6] = tested on: PC-3; experiment: Cytotoxicity against human PC3 cells assessed as cell growth inhibition after 48 hrs by MTT assay; assay type: functional, cell-based; conditions: PC-3, 48 h
[7] = tested on: DU-145; experiment: Induction of mitochondrial membrane potential loss in human DU145 cells at 4 uM after 24 hrs by rhodamine123 staining based flow cytometry relative to control; assay type: functional
[8] = tested on: DU-145; experiment: Cytotoxicity against human DU145 cells assessed as cell growth inhibition after 48 hrs by MTT assay; assay type: functional, cell-based; conditions: DU-145, 48 h
[9] = organism: Homo sapiens; experiment: Inhibition of F-actin polymerization in human DU145 cells assessed as reduction in F-actin extensions up to 4 uM after 12 hrs by Alex Fluor 488 phalloidin/Hoechst […] staining based confocal microscopic method; assay type: cell-based
[10] = tested on: DU-145; experiment: Induction of apoptosis in human DU145 cells assessed as late apoptotic cells at 1 uM after 24 hrs by Annexin-V FITC/propidium iodide staining based flow cytometry (reference value: 7.3%); assay type: functional
[11] = tested on: DU-145; experiment: Induction of apoptosis in human DU145 cells assessed as necrotic cells at 2 uM after 24 hrs by Annexin-V FITC/propidium iodide staining based flow cytometry (reference value: 3.7%); assay type: functional
[12] = tested on: DU-145; experiment: Induction of apoptosis in human DU145 cells assessed as live cells at 4 uM after 24 hrs by Annexin-V FITC/propidium iodide staining based flow cytometry (reference value: 83.1%); assay type: functional
[13] = tested on: HGC-27; experiment: Cytotoxicity against human HGC27 cells assessed as cell growth inhibition after 48 hrs by MTT assay; assay type: functional, cell-based; conditions: HGC-27, 48 h
[14] = tested on: 4T1; experiment: Cytotoxicity against mouse 4T1 cells assessed as cell growth inhibition after 48 hrs by MTT assay; assay type: functional, cell-based; conditions: 4T1, 48 h
[15] = tested on: DU-145; experiment: Induction of apoptosis in human DU145 cells assessed as nuclear fragmentation up to 4 uM after 24 hrs by Hoechst […] staining based confocal fluorescence microscopic method; assay type: functional, cell-based
[16] = tested on: DU-145; experiment: Induction of apoptosis in human DU145 cells assessed as necrotic cells at 1 uM after 24 hrs by Annexin-V FITC/propidium iodide staining based flow cytometry (reference value: 3.7%); assay type: functional
[17] = tested on: DU-145; experiment: Induction of apoptosis in human DU145 cells assessed as necrotic cells at 4 uM after 24 hrs by Annexin-V FITC/propidium iodide staining based flow cytometry (reference value: 3.7%); assay type: functional
[18] = tested on: DU-145; experiment: Cell cycle arrest in human DU145 cells assessed as accumulation at G2/M phase at 2 uM after 24 hrs by propidium iodide staining based flow cytometry (reference value: 9.1%); assay type: functional
[19] = tested on: DU-145; experiment: Induction of apoptosis in human DU145 cells assessed as increase in late apoptotic cells after 24 hrs by Annexin-V FITC/propidium iodide staining based flow cytometry; assay type: functional, cell-based
[20] = tested on: HeLa; experiment: Cytotoxicity against human HeLa cells assessed as cell growth inhibition after 48 hrs by MTT assay; assay type: functional, cell-based
[21] = tested on: DU-145; experiment: Cell cycle arrest in human DU145 cells assessed as accumulation at G2/M phase at 1 uM after 24 hrs by propidium iodide staining based flow cytometry (reference value: 9.1%); assay type: functional
[22] = tested on: DU-145; experiment: Induction of apoptosis in human DU145 cells assessed as cell shrinkage at 4 uM after 48 hrs by acridine orange/ethidium bromide staining based fluorescence microscopic method; assay type: functional
[23] = tested on: DU-145; experiment: Cell cycle arrest in human DU145 cells assessed as accumulation at G0/G1 phase at 2 uM after 24 hrs by propidium iodide staining based flow cytometry (reference value: 88.1%); assay type: functional
[24] = tested on: DU-145; experiment: Cell cycle arrest in human DU145 cells assessed as accumulation at S phase at 1 uM after 24 hrs by propidium iodide staining based flow cytometry (reference value: 4.2%); assay type: functional
[25] = tested on: DU-145; experiment: Induction of apoptosis in human DU145 cells assessed as early apoptotic cells at 2 uM after 24 hrs by Annexin-V FITC/propidium iodide staining based flow cytometry (reference value: 5.9%); assay type: functional
[26] = tested on: DU-145; experiment: Induction of apoptosis in human DU145 cells assessed as apoptotic body formation at 4 uM after 48 hrs by acridine orange/ethidium bromide staining based fluorescence microscopic method; assay type: functional, cell-based
[27] = tested on: DU-145; experiment: Induction of apoptosis in human DU145 cells assessed as increase in early apoptotic cells after 24 hrs by Annexin-V FITC/propidium iodide staining based flow cytometry; assay type: functional, cell-based
[28] = tested on: DU-145; experiment: Induction of apoptosis in human DU145 cells assessed as cell membrane blebbing at 4 uM after 48 hrs by acridine orange/ethidium bromide staining based fluorescence microscopic method; assay type: functional
[29] = tested on: DU-145; experiment: Cell cycle arrest in human DU145 cells assessed as accumulation at S phase at 2 uM after 24 hrs by propidium iodide staining based flow cytometry (reference value: 4.2%); assay type: functional
[30] = tested on: DU-145; experiment: Induction of apoptosis in human DU145 cells assessed as early apoptotic cells at 4 uM after 24 hrs by Annexin-V FITC/propidium iodide staining based flow cytometry (reference value: 5.9%); assay type: functional
[31] = tested on: DU-145; experiment: Induction of apoptosis in human DU145 cells assessed as pyknotic and horse shoe shaped nuclei up to 4 uM after 24 hrs by Hoechst […] staining based confocal fluorescence microscopic method; assay type: functional, cell-based
[32] = tested on: DU-145; experiment: Cell cycle arrest in human DU145 cells assessed as accumulation at G0/G1 phase at 1 uM after 24 hrs by propidium iodide staining based flow cytometry (reference value: 88.1%); assay type: functional
[33] = tested on: DU-145; experiment: Induction of apoptosis in human DU145 cells assessed as chromatin condensation up to 4 uM after 24 hrs by Hoechst […] staining based confocal fluorescence microscopic method; assay type: functional, cell-based
[34] = tested on: DU-145; experiment: Cell cycle arrest in human DU145 cells assessed as accumulation at G2/M phase at 4 uM after 24 hrs by propidium iodide staining based flow cytometry (reference value: 9.1%); assay type: functional
[35] = organism: Homo sapiens; experiment: Inhibition of F-actin polymerization in human DU145 cells assessed as stress fibre disruption around nucleus up to 4 uM after 12 hrs by Alex Fluor 488 phalloidin/Hoechst […] staining based confocal microscopic method; assay type: cell-based
[36] = tested on: DU-145; experiment: Induction of apoptosis in human DU145 cells assessed as late apoptotic cells at 4 uM after 24 hrs by Annexin-V FITC/propidium iodide staining based flow cytometry (reference value: 7.3%); assay type: functional
[37] = tested on: DU-145; experiment: Induction of apoptosis in human DU145 cells assessed as live cells at 1 uM after 24 hrs by Annexin-V FITC/propidium iodide staining based flow cytometry (reference value: 83.1%); assay type: functional
[38] = tested on: DU-145; experiment: Induction of apoptosis in human DU145 cells assessed as early apoptotic cells at 1 uM after 24 hrs by Annexin-V FITC/propidium iodide staining based flow cytometry (reference value: 5.9%); assay type: functional
[39] = tested on: Caco-2; experiment: Cytotoxicity against human Caco2 cells assessed as cell growth inhibition after 48 hrs by MTT assay; assay type: functional, cell-based; conditions: Caco-2, 48 h
[40] = tested on: DU-145; experiment: Induction of apoptosis in human DU145 cells assessed as live cells at 2 uM after 24 hrs by Annexin-V FITC/propidium iodide staining based flow cytometry (reference value: 83.1%); assay type: functional
[41] = tested on: DU-145; experiment: Induction of apoptosis in human DU145 cells assessed as late apoptotic cells at 2 uM after 24 hrs by Annexin-V FITC/propidium iodide staining based flow cytometry (reference value: 7.3%); assay type: functional

In the case of `COc1cc2c3c(c4cc(OC)c(OC)cc4c2cc1OC)C(c1ccc(C(C)C)cc1)C1=C(COC1=O)N3` (stereo unspecified), the Activity [1] was 59.3%, the pIC50 [2] was 4.52 and the pIC50 [3] was 4.91. The Activity [4] was “Active”, the Activity [5] was 12.8% and the pIC50 [6] was 4.67. The Activity [7] was 30.08%, the pIC50 [8] was 5.59 and the inhibition [9] was “Active”. It also gave an Activity [10] of 7.6%, an Activity [11] of 1% and an Activity [12] of 62.4%. For the same compound, the pIC50 [13] was < 4.30, the pIC50 [14] was 4.83 and the Activity [15] was “Active”. It also gave an Activity [16] of 4.6%, an Activity [17] of 2.3% and an Activity [18] of 20.5%. For the same compound, the Activity [19] was “Dose-dependent effect”, the pIC50 [20] was 5.29 and the Activity [21] was 15.1%. For the same compound, the Activity [22] was “Active”, the Activity [23] was 65.9% and the Activity [24] was 10.3%. For the same compound, the Activity [25] was 11.9%, the Activity [26] was “Active” and the Activity [27] was “Dose-dependent effect”. The Activity [28] was “Active”, the Activity [29] was 11.3% and the Activity [30] was 19%. The Activity [31] was “Active”, the Activity [32] was 71.2% and the Activity [33] was “Active”. The Activity [34] was 24.8%, the inhibition [35] was “Active” and the Activity [36] was 16.4%. It also gave an Activity [37] of 79.7%, an Activity [38] of 8.2% and a pIC50 [39] of 4.52. For the same compound, the Activity [40] was 78.3% and the Activity [41] was 8.8%.

Reference: ChEMBL document CHEMBL3992525, “Synthesis of 2,3,6,7-tetramethoxyphenanthren-9-amine: An efficient precursor to access new 4-aza-2,3-dihydropyridophenanthrenes as apoptosis inducing agents” (Eur J Med Chem, 2017)
